Values quoted from earlier work, collected in patent US7071337B2, “Benzoimidazole derivatives useful as antiproliferative agents” (Pfizer Inc, priority 2002, dated 2006).

Columns and labels:
[1] = tested on: transplanted human mammary carcinoma that expresses epidermal growth factor receptor tyrosine kinase (EGFR); settings: athymic nude mice
[2] = tested on: another carcinoma that does not express the EGF receptor; settings: athymic nude mice

Structure (SMILES): O=CN/C=C/c1cc(O)ccc1O [erbstatin]
- growth of transplanted human mammary carcinoma expressing EGFR [1]: selectively attenuates the growth
- growth of carcinoma not expressing the EGF receptor [2]: without effect on the growth
